The test concerns the target T1, human κ opioid receptor (OPRK1) (Homo sapiens, UniProt P41145).
T1 construct: expressed in transfected cells; host or cells: CHO-K1
Briefly: Determination of activities of κ receptor agonists: inhibition of forskolin-stimulated cAMP release (HTRF) in stably transfected CHO-K1 cells. The conditions noted are these: for Relative Activity %: relative to Difelikefalin = 100.0. The format is cell-based. The method in brief: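 Stably transfected CHO-K1 cells stimulated with graded agonist concentrations in presence of forskolin (concentration not specified). Inhibition of forskolin-stimulated cAMP read by HTRF as relative light units; EC50 calculated from dose-response.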
On the technique in general: TR-FRET usually uses a lanthanide donor and a delayed reading to cut background.

Where two headings read alike, the source gives them in different places.

For orientation: EC50 means the concentration at which the effect is half-maximal.

T1 sequence (P41145 whole entry): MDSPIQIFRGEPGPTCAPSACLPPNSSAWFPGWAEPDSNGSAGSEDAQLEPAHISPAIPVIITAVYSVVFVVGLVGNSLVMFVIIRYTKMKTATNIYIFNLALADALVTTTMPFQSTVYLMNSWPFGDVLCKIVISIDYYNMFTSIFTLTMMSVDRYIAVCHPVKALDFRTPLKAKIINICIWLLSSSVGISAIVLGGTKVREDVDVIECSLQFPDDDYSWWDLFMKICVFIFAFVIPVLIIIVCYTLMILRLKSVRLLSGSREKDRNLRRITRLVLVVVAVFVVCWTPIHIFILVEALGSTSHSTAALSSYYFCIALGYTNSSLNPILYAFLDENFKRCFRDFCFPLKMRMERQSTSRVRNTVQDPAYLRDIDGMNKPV

On to `CC(C)C[C@@H](NC(=O)[C@@H](Cc1ccc(C(C)C)cc1)NC(=O)[C@H](N)Cc1ccccc1)C(=O)N[C@H](CCCCN)C(=O)N1CCC(N)(C(=O)N[C@H](CCCCN)C(N)=O)CC1` [Compound 137, D-Phe-D-Phe(4-Ipr)-D-Leu-D-Lys-4-aminopiperidine-4-carboxamide-D-Lys-NH2], for which the response was half-maximal at 0.143 nM (EC50) and the “Relative Activity %” value was determined as 423.1%.
For `CC(C)C[C@@H](NC(=O)[C@@H](Cc1ccc(N)cc1)NC(=O)[C@H](N)Cc1ccccc1)C(=O)N[C@H](CCCCN)C(=O)N1CCC(N)(C(=O)N[C@H](CCCCN)C(N)=O)CC1` [Compound 141, D-Phe-D-Phe(4-NH2)-D-Leu-D-Lys-4-aminopiperidine-4-carboxamide-D-Lys-NH2], in that order: 0.112 nM and 543.1%.
In the case of `CC(C)C[C@@H](NC(=O)[C@@H](Cc1ccccc1)NC(=O)[C@H](N)Cc1ccccc1)C(=O)N[C@H](CCCCN)C(=O)N1CCC(N)(C(=O)O)CC1` [Difelikefalin, D-Phe-D-Phe-D-Leu-D-Lys-4-caminopiperidine-4-arboxylicacid-OH, reference compound], the EC50 (CHO-K1 cell line stably expressing opioid receptors, forskolin-stimulated cAMP, HTRF, read-out: EC50) turned out to be 0.607 nM.

These data come from US20260274891A1, “¿ OPIOID RECEPTOR AGONIST AND USE THEREOF” (CHENGDU AODA BIOTECHNOLOGY CO., LTD., priority 2023, published 2026).
